Experimental findings from patent US20160168540A1, “COMPOSITION FOR MAINTAINING PLATELET FUNCTION” (KYOTO UNIVERSITY, priority 2013, published 2016) are described below.

Molecules are shown by their SMILES.

The target of the assay is T1, TACE (ADAM17) (Homo sapiens, UniProt P78536).
T1 construct: made in house; host or cells: mammalian cells or insect cells
Description: TACE (ADAM17) inhibition test. It counts as biochemical. The following applies: fluorescent synthetic substrate, 37° C. for 1.5 hours; read-out: TACE IC50. An excerpt:
The nucleotide sequence of TACE has been reported by Moss et al. (Moss, M. L. et al., Nature 1997, vol. 385, pp. 733-736). Based on this information, the cDNA of TACE was obtained according to the prescribed method from THP-1 cells or the like, and then incorporated the cDNA into an expression vector. Next, this vector was transformed into mammalian cells or insect cells, and TACE protein was expressed. The TACE protein was isolated, and used as an enzyme. Further, a fluorescent synthetic substrate Nma(N-methylanthranilic acid)-Leu-Ala-Gln-Ala-Val-Arg-Ser-Ser-Lys(Dnp(dinitrophenyl))-D-Arg-NH2 including the TACE-cleaved sequence of a membrane-bound TNF was used as a substrate. The enzyme reaction was carried out by adding 1.8 μL of a solution of the test substance to 90 μL of a fluorescent synthetic substrate prepared with an assay buffer B (50 mM tris-hydrochloric acid buffer (pH 7.5) including 200 mM sodium chloride, 5 mM calcium chloride, 10 μM zinc sulfate, and 0.05% PLURONIC F-68), then mixing 90 μL of a TACE enzyme solution prepared with an assay buffer A (50 mM tris-hydrochloric acid buffer (pH 7.5) including 200 mM sodium chloride, 5 mM calcium chloride, 10 μM zinc sulfate, and 2 mg/mL bovine serum albumin) and reacting at 37° C. for 1.5 hours. Enzyme activity was then determined by measuring with a fluorescence intensity meter (Labsystems, Fluoroskan Ascent) at an excitation wavelength of 355 nm and a measurement wavelength of 460 nm. The 50% inhibitory concentration (IC50) of the test substances was calculated by comparing enzyme activity in the presence and the absence of the test substance to determine the inhibition rate. Further, test substances having an IC50 strength of less than 100 nM were evaluated as “A”, and test substances having an IC50 strength of 100 nM or more were evaluated as “B”.

T1 sequence (P78536 215-824): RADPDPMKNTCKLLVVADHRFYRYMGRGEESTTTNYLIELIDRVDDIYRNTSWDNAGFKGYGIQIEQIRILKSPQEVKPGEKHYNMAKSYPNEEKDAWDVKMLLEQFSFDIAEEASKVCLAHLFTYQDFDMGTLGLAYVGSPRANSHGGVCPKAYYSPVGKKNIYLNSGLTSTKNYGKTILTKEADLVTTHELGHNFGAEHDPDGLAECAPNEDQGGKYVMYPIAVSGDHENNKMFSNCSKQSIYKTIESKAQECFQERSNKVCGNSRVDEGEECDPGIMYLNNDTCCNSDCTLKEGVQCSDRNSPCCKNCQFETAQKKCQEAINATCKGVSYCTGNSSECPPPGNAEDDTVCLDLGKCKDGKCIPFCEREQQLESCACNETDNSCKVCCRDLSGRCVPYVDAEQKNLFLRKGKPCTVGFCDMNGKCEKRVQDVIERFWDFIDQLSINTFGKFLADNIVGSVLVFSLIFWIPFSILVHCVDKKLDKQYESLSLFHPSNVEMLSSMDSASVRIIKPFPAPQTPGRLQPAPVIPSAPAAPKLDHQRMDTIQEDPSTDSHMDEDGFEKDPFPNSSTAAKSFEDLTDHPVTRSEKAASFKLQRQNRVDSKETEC

Consider `Cc1cccn(CC2(c3ccc(-c4ccc(F)cc4)cc3)NC(=O)NC2=O)c1=O` (racemic) [Compound I-75], for which the IC50 is under 100 nM.
As for `COc1ccc(C)cc1C1(Cn2cccc(C)c2=O)NC(=O)NC1=O` (racemic) [Compound I-76], the figure is at least 100 nM; as for `Cc1cccn(CC2(c3ccc4c(c3)CCCC4)NC(=O)NC2=O)c1=O` (racemic) [Compound I-77], under 100 nM.
With `Cc1cccn(CC2(c3ccc(OC(F)F)cc3)NC(=O)NC2=O)c1=O` (racemic) [Compound I-78] the figure was under 100 nM; with `Cc1cccn(CC2(c3ccc(OC(F)(F)F)cc3)NC(=O)NC2=O)c1=O` (racemic) [Compound I-79], under 100 nM.
Consider `Cc1cccc(Oc2ccc(C3(Cn4cccc(C)c4=O)NC(=O)NC3=O)cc2)c1` (racemic) [Compound I-80], for which the IC50 was under 100 nM.
Regarding `COc1ccc(Oc2ccc(C3(Cn4cccc(C)c4=O)NC(=O)NC3=O)cc2)cc1` (racemic) [Compound I-81], the IC50 is under 100 nM.
As for `Cc1cccn(CC2(c3ccc(Oc4ccc(Cl)cc4)cc3)NC(=O)NC2=O)c1=O` (racemic) [Compound I-82], the IC50 was under 100 nM.
With `COc1cccc(Oc2ccc(C3(Cn4cccc(C)c4=O)NC(=O)NC3=O)cc2)c1` (racemic) [Compound I-83] the figure was under 100 nM; with `Cc1cccn(CC2(c3ccc(Oc4cccc(F)c4)cc3)NC(=O)NC2=O)c1=O` (racemic) [Compound I-84], under 100 nM; with `Cc1cccn(CC2(c3ccc(Oc4ccc(F)cc4)cc3)NC(=O)NC2=O)c1=O` (racemic) [Compound I-85], under 100 nM.
With `Cc1cccn(CC2(c3ccc(Oc4ccccc4F)cc3)NC(=O)NC2=O)c1=O` (racemic) [Compound I-86] the figure was under 100 nM.
As for `Cc1cccn(CC2(c3ccc(Oc4ccccc4)c(F)c3)NC(=O)NC2=O)c1=O` (racemic) [Compound I-87], the figure is under 100 nM.
For the molecule `Cc1cccn(CC2(c3ccc(OCc4ccc(F)cc4)cc3)NC(=O)NC2=O)c1=O` (racemic) [Compound I-88], the IC50 was under 100 nM.
As for `Cc1cccn(CC2(c3ccc(C(F)(F)F)cc3)NC(=O)NC2=O)c1=O` (racemic) [Compound I-89], the IC50 was under 100 nM.
As for `Cc1noc(C)c1-c1ccc(C2(Cn3cccc(C)c3=O)NC(=O)NC2=O)cc1` (racemic) [Compound I-90], the figure is under 100 nM; as for `COc1ccncc1-c1ccc(C2(Cn3cccc(C)c3=O)NC(=O)NC2=O)cc1` (racemic) [Compound I-91], under 100 nM; as for `Cc1cccn(CC2(c3ccc(-c4ccccn4)cc3)NC(=O)NC2=O)c1=O` (racemic) [Compound I-92], under 100 nM.
As for `Cc1cccn(CC2(c3cccc(-c4ccc(F)cn4)c3)NC(=O)NC2=O)c1=O` (racemic) [Compound I-93], the figure is under 100 nM; as for `Cc1cccn(CC2(c3cccc(-c4ccccn4)c3)NC(=O)NC2=O)c1=O` (racemic) [Compound I-94], under 100 nM; as for `Cc1cccn(CC2(c3cccc(-c4ccncc4)c3)NC(=O)NC2=O)c1=O` (racemic) [Compound I-95], under 100 nM.
Turning to `Cc1cccn(CC2(c3cccc(-c4ccccc4)c3)NC(=O)NC2=O)c1=O` (racemic) [Compound I-96], the half-inhibitory concentration (IC50) was under 100 nM.
With `Cc1cccn(CC2(c3ccc(Oc4ccc(F)cc4F)cc3)NC(=O)NC2=O)c1=O` (racemic) [Compound I-97] the figure was under 100 nM; with `Cc1cccn(CC2(c3ccc(Oc4ccc(F)c(F)c4)cc3)NC(=O)NC2=O)c1=O` (racemic) [Compound I-98], under 100 nM.
As for `Cc1cccn(CC2(c3ccc(Oc4cc(F)cc(F)c4)cc3)NC(=O)NC2=O)c1=O` (racemic) [Compound I-99], the figure is under 100 nM; as for `Cc1cccn(CC2(c3ccc(Oc4cccc(C(F)(F)F)c4)cc3)NC(=O)NC2=O)c1=O` (racemic) [Compound I-100], under 100 nM; as for `Cc1cccn(CC2(c3ccc(Oc4cccnc4)cc3)NC(=O)NC2=O)c1=O` (racemic) [Compound I-101], under 100 nM.
Turning to `Cc1cccn(CC2(c3ccc(Sc4ccccc4)cc3)NC(=O)NC2=O)c1=O` (racemic) [Compound I-102], the IC50 was under 100 nM.
With `Cc1cccn(CC2(c3ccc(Sc4ccccc4)c(F)c3)NC(=O)NC2=O)c1=O` (racemic) [Compound I-103] the figure was under 100 nM; with `Cc1cccn(CC2(c3ccc(Oc4ccccc4F)c(F)c3)NC(=O)NC2=O)c1=O` (racemic) [Compound I-104], under 100 nM; with `Cc1cccn(CC2(c3ccc4c(c3)OCCCO4)NC(=O)NC2=O)c1=O` (racemic) [Compound I-105], under 100 nM.
For `Cc1cccn(CC2(c3ccc(C#Cc4ccccc4)cc3)NC(=O)NC2=O)c1=O` (racemic) [Compound I-106], the IC50 was under 100 nM.
As for `Cc1cccn(CC2(c3ccc(CCc4ccccc4)cc3)NC(=O)NC2=O)c1=O` (racemic) [Compound I-107], the figure is under 100 nM; as for `C=C(C)c1ccc(C2(Cn3cccc(C)c3=O)NC(=O)NC2=O)cc1` (racemic) [Compound I-108], under 100 nM.
As for `Cc1cccn(CC2(c3ccc(C#Cc4ccccn4)cc3)NC(=O)NC2=O)c1=O` (racemic) [Compound I-110], the figure is under 100 nM; as for `Cc1cccn(CC2(c3ccc(Oc4ccc(F)cc4)c(F)c3)NC(=O)NC2=O)c1=O` (racemic) [Compound I-111], under 100 nM; as for `Cc1cccn(CC2(c3ccc(Oc4cccc(F)c4)c(F)c3)NC(=O)NC2=O)c1=O` (racemic) [Compound I-112], under 100 nM.
With `COc1ccccc1Oc1ccc(C2(Cn3cccc(C)c3=O)NC(=O)NC2=O)cc1` (racemic) [Compound I-113] the figure was under 100 nM; with `COc1ccccc1Oc1ccc(C2(Cn3cccc(C)c3=O)NC(=O)NC2=O)cc1F` (racemic) [Compound I-114], under 100 nM.
With `Cc1cccn(CC2(c3ccc(CCc4ccccn4)cc3)NC(=O)NC2=O)c1=O` (racemic) [Compound I-115], the IC50 was under 100 nM.
With `CCc1ccc(C2(Cn3cccc(C)c3=O)NC(=O)NC2=O)cc1` (racemic) [Compound I-116] the figure was under 100 nM.
Regarding `Cc1cccn(CC2(c3ccc(C(C)C)cc3)NC(=O)NC2=O)c1=O` (racemic) [Compound I-117], the IC50 is under 100 nM.
As for `Cc1cccn(CC2(c3ccc(CCC4CCCCC4)cc3)NC(=O)NC2=O)c1=O` (racemic) [Compound I-118], the figure is at least 100 nM; as for `CCOc1ccc(C2(Cn3cccc(C)c3=O)NC(=O)NC2=O)cc1` (racemic) [Compound I-119], under 100 nM; as for `Cc1cccn(CC2(c3ccc(OC(C)C)cc3)NC(=O)NC2=O)c1=O` (racemic) [Compound I-120], under 100 nM.
As for `Cc1cccn(CC2(c3ccc(CC(C)C)cc3)NC(=O)NC2=O)c1=O` (racemic) [Compound I-121], the figure is under 100 nM; as for `Cc1cccn(CC2(c3ccc(Oc4cccnc4)c(F)c3)NC(=O)NC2=O)c1=O` (racemic) [Compound I-122], under 100 nM; as for `Cc1cccn(CC2(c3ccc(Oc4ccccc4)c(Cl)c3)NC(=O)NC2=O)c1=O` (racemic) [Compound I-123], under 100 nM.

As a reminder, the IC50 is the concentration that gives 50% inhibition.
